{"source": "patent US20250275535A1", "about": "“OLIVE TREE BIOMASS EXTRACT” (Veos Pharmaceuticals, S.L., priority 2024, published 2025)", "type_in_all_cases": "in vivo", "key": {"[1]": {"test_system": "Corn seeds (field hybrid 7571)", "experiment": "Corn seed germination", "details": "12 wt. % hydroxytyrosol solution, room temperature, 14 days; water control 27% (FIG. 1C), 33% (repeat, FIG. 1D)", "procedure": "Corn seeds (field hybrid 7571) were incubated at room temperature in a solution including 12 wt. % hydroxytyrosol for 14 days. As a control, corn seeds (field hybrid 7571) were incubated at room temperature in water for 14 days."}, "Sorghum seeds (RT X 437)": {"test_system": "Sorghum seeds (RT X 437)", "experiment": "Sorghum seed germination", "details": "12 wt. % hydroxytyrosol solution, room temperature, 14 days; water control 36% (FIG. 2C), 29% (repeat, FIG. 2D)", "procedure": "Sorghum seeds (RT X 437) were incubated at room temperature in a solution including 12 wt. % hydroxytyrosol for 14 days. As a control, sorghum seeds (RT X 437) were incubated at room temperature in water for 14 days."}, "[2]": {"test_system": "low molecular weight proteins (sHSPs, LTPs, pathogenesis-related proteins, and LEA proteins)", "experiment": "Fold change in protein expression (SDS-PAGE, Western blotting, densitometry)", "details": "12% hydroxytyrosol, vs water control, FIG. 6", "procedure": "(§1) The effect of different hydroxytyrosol concentrations on crop stress resistance and protein production was examined. […] Protein quantification was conducted using SDS-PAGE and Western blotting for visualization, followed by densitometry analysis to measure fold increases in protein expression. Additionally, HPLC-DAD and mass spectrometry were utilized to confirm hydroxytyrosol stability and retention in plant tissue."}, "Rubisco": {"test_system": "Rubisco", "experiment": "Fold change in protein expression (SDS-PAGE, Western blotting, densitometry)", "details": "12% hydroxytyrosol, vs water control, FIG. 6", "procedure": "as §1"}, "other HSPs": {"test_system": "other HSPs", "experiment": "Fold change in protein expression (SDS-PAGE, Western blotting, densitometry)", "details": "12% hydroxytyrosol, vs water control, FIG. 6", "procedure": "as §1"}, "HSP70": {"test_system": "HSP70", "experiment": "Fold change in protein expression (SDS-PAGE, Western blotting, densitometry)", "details": "12% hydroxytyrosol, vs water control, FIG. 6", "procedure": "as §1"}, "Rice plants": {"test_system": "Rice plants", "experiment": "Rice growth rate (column length)", "details": "12 wt. % hydroxytyrosol", "procedure": "Rice plants were treated with 12 wt. % hydroxytyrosol over 28 days. As a control, rice plants were treated with water over 28 days. FIG. 4 depicts a line chart showing the column length of rice plants over 28 days. Table 1 provides the column length of rice plants treated with 12 wt. % hydroxytyrosol and water after 1, 14, and 28 days."}, "[3]": {"test_system": "Rice seeds (Japanese cultivar, Taipei 309)", "experiment": "Rice seed germination", "details": "12 wt. % hydroxytyrosol solution, 37° C., 14 days; water control 56%", "procedure": "Rice seeds (Japanese cultivar, Taipei 309) were incubated at 37° C. in a solution including 12 wt. % hydroxytyrosol for 14 days. As a control, rice seeds (Japanese cultivar, Taipei 309) were incubated at 37° C. in water for 14 days."}}, "note": "“And” between values parts separate entries of the source, which are not always exact repeats. Equal entries are not always repeated.", "data": [{"smiles": "OCCc1ccc(O)c(O)c1", "note": "[hydroxytyrosol]", "values": [{"measurement": "corn seeds germinated", "setting": "[1]", "value": "75% and 69%"}, {"measurement": "sorghum seeds germinated", "setting": "Sorghum seeds (RT X 437)", "value": "78% and 77%"}, {"measurement": "increase in low molecular weight proteins (fold change in protein expression)", "setting": "[2]", "value": 4.09, "unit": "×"}, {"measurement": "increase in Rubisco (fold change in protein expression)", "setting": "Rubisco", "value": 1.72, "unit": "×"}, {"measurement": "increase in other HSPs (fold change in protein expression)", "setting": "other HSPs", "value": 3.10, "unit": "×"}, {"measurement": "increase in HSP70 (fold change in protein expression)", "setting": "HSP70", "value": 2.99, "unit": "×"}, {"measurement": "column length of rice plants", "setting": "Rice plants; 1 day of treatment, water control 22 cm", "value": 35, "unit": "cm"}, {"measurement": "column length of rice plants", "setting": "Rice plants; 14 days of treatment, water control 39 cm", "value": 82, "unit": "cm"}, {"measurement": "column length of rice plants", "setting": "Rice plants; 28 days of treatment, water control 60 cm", "value": 112, "unit": "cm"}, {"measurement": "rice seeds germinated", "setting": "[3]", "value": 74, "unit": "%"}]}]}
